Source: patent US12227495B2, “Herbicidal compounds” (SYNGENTA CROP PROTECTION AG, priority 2018, dated 2025)

Key:
Format in all cases: in vivo
Details in all cases: evaluated after 13 days
[1] = system: Amaranthus retoflexus (AMARE); experiment: Post-emergence herbicide test, glasshouse, percentage damage
Procedure, shortened: (§1)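 Compounds are applied as aqueous sprays at 500 g/ha, unless otherwise stated, either one day after sowing or to 8-day-old plants. Injury is assessed after 13 days and expressed on a 1-5 scale, where 5 means 81-100% damage.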

[2] = system: Echinochloa crus-galli (ECHCG); experiment: as above
Procedure, shortened: as §1

[3] = system: Ipomoea hederacea (IPOHE); experiment: as above
Procedure, shortened: as §1

Lolium perenne (LOLPE) [4] = experiment: as above
Procedure, shortened: as §1

Setaria faberi (SETFA) [5] = experiment: as above
Procedure, shortened: as §1

Solanum nigrum (SOLNI) [6] = experiment: as above
Procedure, shortened: as §1

[7] = system: Amaranthus retoflexus (AMARE); experiment: Pre-emergence herbicide test, glasshouse, percentage damage
Procedure, shortened: as §1

[8] = system: Echinochloa crus-galli (ECHCG); experiment: as above
Procedure, shortened: as §1

[9] = system: Ipomoea hederacea (IPOHE); experiment: as above
Procedure, shortened: as §1

Lolium perenne (LOLPE) [10] = experiment: as above
Procedure, shortened: as §1

Setaria faberi (SETFA) [11] = experiment: as above
Procedure, shortened: as §1

Solanum nigrum (SOLNI) [12] = experiment: as above
Procedure, shortened: as §1

| Structure (SMILES) | percentage damage caused to the plant, AMARE ([1]; 1000 g/ha) | percentage damage caused to the plant, ECHCG ([2]; 1000 g/ha) | percentage damage caused to the plant, IPOHE ([3]; 1000 g/ha) | percentage damage caused to the plant, LOLPE (Lolium perenne (LOLPE) [4]; 1000 g/ha) | percentage damage caused to the plant, SETFA (Setaria faberi (SETFA) [5]; 1000 g/ha) | percentage damage caused to the plant, SOLNI (Solanum nigrum (SOLNI) [6]; 1000 g/ha) | Pre-emergence Test AMARE percentage damage (five point scale) ([7]; rate 1000 g/ha) | Pre-emergence Test ECHCG percentage damage (five point scale) ([8]; rate 1000 g/ha) | Pre-emergence Test IPOHE percentage damage (five point scale) ([9]; rate 1000 g/ha) | Pre-emergence Test LOLPE percentage damage (five point scale) (Lolium perenne (LOLPE) [10]; rate 1000 g/ha) | Pre-emergence Test SETFA percentage damage (five point scale) (Setaria faberi (SETFA) [11]; rate 1000 g/ha) | Pre-emergence Test SOLNI percentage damage (five point scale) (Solanum nigrum (SOLNI) [12]; rate 1000 g/ha) | further results |
| --- | --- | --- | --- | --- | --- | --- | --- | --- | --- | --- | --- | --- | --- |
| O=[N+]([O-])c1cccc(Oc2ncc(Cl)cc2F)c1-n1cc(C(F)(F)F)cn1 [Compound A46] | 5 (5=81-100%) | 3 (3=41-60%) | 2 (2=21-40%) | 3 (3=41-60%) | 4 (4=61-80%) | 5 (5=81-100%) | 4 (4=61-80%) | 4 (4=61-80%) | 1 (1=0-20%) | 1 (1=0-20%) | 5 (5=81-100%) | 1 (1=0-20%) | – |
| Fc1cc(Cl)cnc1Oc1ccccc1-n1cc(C(F)(F)F)cn1 [Compound A16] | 4 (4=61-80%) | 5 (5=81-100%) | 5 (5=81-100%) | 5 (5=81-100%) | 5 (5=81-100%) | 5 (5=81-100%) | 5 (5=81-100%) | 5 (5=81-100%) | 5 (5=81-100%) | 5 (5=81-100%) | 5 (5=81-100%) | 5 (5=81-100%) | – |
| Fc1ccc(Oc2cccc(F)c2-c2cc(C(F)F)no2)nc1F [Compound A50] | 3 (3=41-60%) | 2 (2=21-40%) | 1 (1=0-20%) | 1 (1=0-20%) | 3 (3=41-60%) | 5 (5=81-100%) | 4 (4=61-80%) | 1 (1=0-20%) | 1 (1=0-20%) | 1 (1=0-20%) | 4 (4=61-80%) | 4 (4=61-80%) | – |
| N#Cc1ccc(Oc2cccc(Cl)c2-c2cc(C(F)F)no2)nc1 [Compound A115] | 5 (5=81-100%) | 4 (4=61-80%) | 5 (5=81-100%) | 4 (4=61-80%) | 5 (5=81-100%) | 5 (5=81-100%) | 5 (5=81-100%) | 5 (5=81-100%) | 5 (5=81-100%) | 5 (5=81-100%) | 5 (5=81-100%) | 4 (4=61-80%) | – |
| Fc1cc(Cl)cnc1Oc1cccc(F)c1-c1ncc(C(F)(F)F)o1 [Compound A3, 2-[2-[(5-CHLORO-3-FLUORO-2-PYRIDYL)OXY]-6-FLUORO-PHENYL]-5-(TRIFLUOROMETHYL)OXAZOLE] | – | – | – | – | – | – | – | – | – | – | – | – | percentage damage caused to the plant, AMARE ([1]; 500 g/ha): 2 (2=21-40%); percentage damage caused to the plant, ECHCG ([2]; 500 g/ha): 1 (1=0-20%); percentage damage caused to the plant, IPOHE ([3]; 500 g/ha): 1 (1=0-20%); percentage damage caused to the plant, LOLPE (Lolium perenne (LOLPE) [4]; 500 g/ha): 1 (1=0-20%); percentage damage caused to the plant, SETFA (Setaria faberi (SETFA) [5]; 500 g/ha): 4 (4=61-80%); percentage damage caused to the plant, SOLNI (Solanum nigrum (SOLNI) [6]; 500 g/ha): 3 (3=41-60%); Pre-emergence Test AMARE percentage damage (five point scale) ([7]; rate 500 g/ha): 3 (3=41-60%); Pre-emergence Test ECHCG percentage damage (five point scale) ([8]; rate 500 g/ha): 3 (3=41-60%); Pre-emergence Test IPOHE percentage damage (five point scale) ([9]; rate 500 g/ha): 1 (1=0-20%); Pre-emergence Test LOLPE percentage damage (five point scale) (Lolium perenne (LOLPE) [10]; rate 500 g/ha): 1 (1=0-20%); Pre-emergence Test SETFA percentage damage (five point scale) (Setaria faberi (SETFA) [11]; rate 500 g/ha): 3 (3=41-60%); Pre-emergence Test SOLNI percentage damage (five point scale) (Solanum nigrum (SOLNI) [12]; rate 500 g/ha): 3 (3=41-60%) |
| Fc1cc(Cl)cnc1Oc1cccc(Br)c1-c1cc(C(F)F)no1 [Compound A44] | 5 (5=81-100%) | 5 (5=81-100%) | 5 (5=81-100%) | 5 (5=81-100%) | 5 (5=81-100%) | 5 (5=81-100%) | 5 (5=81-100%) | 5 (5=81-100%) | 5 (5=81-100%) | 5 (5=81-100%) | 5 (5=81-100%) | 5 (5=81-100%) | – |
| Fc1cc(Cl)cnc1Oc1ccccc1-n1ccnc1 [Compound A28, 5-chloro-3-fluoro-2-(2-imidazol-1-ylphenoxy)pyridine] | 5 (5=81-100%) | 1 (1=0-20%) | 1 (1=0-20%) | 1 (1=0-20%) | 1 (1=0-20%) | 4 (4=61-80%) | 3 (3=41-60%) | 1 (1=0-20%) | 1 (1=0-20%) | 1 (1=0-20%) | 1 (1=0-20%) | 1 (1=0-20%) | – |
| O=[N+]([O-])c1ccc(Oc2cccc(F)c2-c2cc(C(F)F)no2)nc1 [Compound A2, 3-(DIFLUOROMETHYL)-5-[2-FLUORO-6-[(5-NITRO-2-PYRIDYL)OXY]PHENYL]ISOXAZOLE] | – | – | – | – | – | – | – | – | – | – | – | – | percentage damage caused to the plant, AMARE ([1]; 500 g/ha): 5 (5=81-100%); percentage damage caused to the plant, ECHCG ([2]; 500 g/ha): 5 (5=81-100%); percentage damage caused to the plant, IPOHE ([3]; 500 g/ha): 4 (4=61-80%); percentage damage caused to the plant, LOLPE (Lolium perenne (LOLPE) [4]; 500 g/ha): 5 (5=81-100%); percentage damage caused to the plant, SETFA (Setaria faberi (SETFA) [5]; 500 g/ha): 5 (5=81-100%); percentage damage caused to the plant, SOLNI (Solanum nigrum (SOLNI) [6]; 500 g/ha): 5 (5=81-100%); Pre-emergence Test AMARE percentage damage (five point scale) ([7]; rate 500 g/ha): 5 (5=81-100%); Pre-emergence Test ECHCG percentage damage (five point scale) ([8]; rate 500 g/ha): 5 (5=81-100%); Pre-emergence Test IPOHE percentage damage (five point scale) ([9]; rate 500 g/ha): 2 (2=21-40%); Pre-emergence Test LOLPE percentage damage (five point scale) (Lolium perenne (LOLPE) [10]; rate 500 g/ha): 4 (4=61-80%); Pre-emergence Test SETFA percentage damage (five point scale) (Setaria faberi (SETFA) [11]; rate 500 g/ha): 5 (5=81-100%); Pre-emergence Test SOLNI percentage damage (five point scale) (Solanum nigrum (SOLNI) [12]; rate 500 g/ha): 4 (4=61-80%) |
| Fc1cc(Br)cnc1Oc1cccc(F)c1-c1cc(C(F)F)no1 [Compound A20] | 5 (5=81-100%) | 4 (4=61-80%) | 5 (5=81-100%) | 4 (4=61-80%) | 4 (4=61-80%) | 5 (5=81-100%) | 4 (4=61-80%) | 5 (5=81-100%) | 3 (3=41-60%) | 5 (5=81-100%) | 5 (5=81-100%) | 3 (3=41-60%) | – |
